Reference: US20230131376A1, “ADJUVANT-ANTIBIOTIC COMBINATION AGAINST GRAM-NEGATIVE BACTERIA” (University of Notre Dame du Lac, priority 2020, published 2023)
Entries after “also recorded” stand apart in the source; their conditions may differ.

Tests used:
[1] = test system: Francisella philomiragia; details: tested at 50 μM; cited from earlier work
[2] = test system: E. coli YD626 (parent); test: Colistin potentiation, broth microdilution, E. coli YD626 parent; assay type: cell-based
Excerpt: (§1) Broth microdilution method for antibiotic potentiation.

[3] = test system: F. novicida; details: tested at 50 μM; cited from earlier work
[4] = test system: A. baumannii 4106; test: In vitro MIC of tigecycline; assay type: cell-based; details: Acinetobacter baumannii
Experimental: Broth microdilution method for MIC determination. […] Aliquots (1 mL) were placed in culture tubes and compound was added from 10 mM stock samples in DMSO, such that compound concentration equaled highest concentration tested (200 μM). Samples were then aliquoted (200 μL) into the first wells of a 96-well plate, with all remaining wells being filled with 100 μL of initial bacterial subculture. Row one wells were mixed five times, before 100 μL was transferred to row two. […] This process was repeated until the final row had been mixed; this served to serially dilute the compound.

[5] = test system: A. baumannii 4106 infection in G. mellonella larvae; test: Galleria mellonella model of A. baumannii infection; assay type: in vivo; details: 6×10^5 CFU A. baumannii 4106, day 4
Experimental: Galleria mellonella Assay. G. mellonella larvae (Speedy Worm, Alexandria, Minn.) were used within 10 days of shipment from the vendor. After reception of worms, larvae were kept in the dark at room temperature for at least 24 h. before infection. Larvae weighing between 200 to 300 mg were used in the survival assay. Using a 10 μL glass syringe (Hamilton, Reno, Nev.) fitted with a 30 G needle (Exel International, St. Petersburg, Fla.), a 5 μL solution of the desired compound(s) and concentration(s) were injected into the last left proleg. Colistin was dosed at 50 mg/kg dissolved in DI water, 2-AIs at 50 mg/kg dissolved in DMSO, tigecycline at 100 mg/kg dissolved in DMSO, and DMSO was injected for a negative control. For bacterial injections, 1 mL from an overnight culture of A. baumannii 4106 in Miller LB broth (Fisher Scientific U.S.) was subcultured into 9 mL Miller LB broth and incubated for an additional 3 h before use. The 10 mL solution was centrifuged and washed three times with phosphate buffer solution (PBS, Fisher Scientific U.S.) before diluting to 6×10^5 CFUs in PBS. Then, 2.5 h. after the first injection, a second 5 μL injection containing 6×10^5 CFUs of A. baumannii 4106 was injected into the second to last left proleg. Injected worms were left at room temperature in the dark while being assessed at 24 h intervals over 4 days. […] Experiment was repeated 3 times using 10 larvae per experimental group. No ethics approval was needed for G. mellonella.

[6] = test system: A. baumannii 4106; test: Colistin potentiation, chromosomally colistin resistant A. baumannii 4106; assay type: cell-based
Excerpt: as §1

[7] = test system: K. pneumoniae C3; test: Colistin potentiation, chromosomally colistin resistant K. pneumoniae C3; assay type: cell-based
Excerpt: as §1

[8] = test system: A. baumannii 17978 +mcr-1; test: Colistin potentiation with detergent (Tween 80); assay type: cell-based; details: adjuvant at 30 μM; 0.01% Tween 80
Excerpt: Broth microdilution method for antibiotic potentiation with detergent.

[9] = test system: chromosomally colistin resistant K. pneumoniae and A. baumannii strains; test: Colistin potentiation stated for the four chromosomally colistin resistant strains together; assay type: cell-based
Excerpt: as §1

[10] = test system: red blood cells; test: Hemolysis assay; assay type: cell-based, sheep
Experimental: Hemolysis assay. Hemolysis assays were performed on mechanically defibrinated sheep blood (Hemostat Labs: DSB30). Defibrinated blood (1.5 mL) was placed into a microcentrifuge tube and centrifuged for 10 min at 10,000 rpm. The supernatant was then removed, and the cells were resuspended in 1 mL of phosphate-buffered saline (PBS). The suspension was centrifuged, the supernatant was removed, and cells were resuspended two additional times. The final cell suspension was then diluted 10-fold. Test compound solutions were made in PBS in small culture tubes and then added to aliquots of the 10-fold suspension dilution of blood. PBS was used as a negative control and a zero hemolysis marker. Triton X (a 1% sample) was used as a positive control serving as the 100% lysis marker. Samples were then placed in an incubator at 37° C. while being shaken at 200 rpm for one hour. After one hour, the samples were transferred to microcentrifuge tubes and centrifuged for 10 min at 10,000 rpm. The resulting supernatant was diluted by a factor of 40 in distilled water. The absorbance of the supernatant was then measured with a UV spectrometer at a 540 nm wavelength.

[11] = test system: mcr-1 plasmid containing E. coli, K. pneumoniae, and A. baumannii; test: Colistin potentiation stated for all three mcr-1 strains together
[12] = test system: K. pneumoniae B9; test: Colistin potentiation, chromosomally colistin resistant K. pneumoniae B9; assay type: cell-based
Excerpt: as §1

[13] = test system: 4T1 cells; test: MTT cell viability assay; assay type: cell-based, mouse
Experimental: MTT Cell Viability Assay. 4T1 cells (ATCC Manassas, Va.) were plated at a density of 1×10^4 cells/well in 96-well plates. (Roswell Park Memorial Institute Media 1640, Gibco, Gaithersburg, Md.) supplemented with 10% Fetal Bovine Serum (Gibco), 2 mM GlutaMAX (Gibco) and 50 μM 2-mercaptoethanol (Sigma Aldrich St. Louis, Mo.) and incubated at 37° C. under a 5% CO2 atmosphere in the dark for 18 h. Cell cultures were treated with serial dilutions of compounds in the presence or absence of 1 μg/mL colistin (3 replicates per condition) and incubated for an additional 18 hours. The following control conditions were used: media only (blank), 1% Triton X100 (0% cell viability), 0.5% DMSO (100% cell viability). Each condition was then treated with 10% volume of a 5 mg/mL solution of 3-(4,5-dimethylthiazol-2-yl)-2,5-diphenyltetrazolium bromide (MTT) (Sigma Aldrich) in sterile filtered 1× phosphate buffered saline (PBS) and incubated for 2 h. at 37° C. in 5% CO2, after which the media was aspirated and the resulting formazan crystals were resuspended in 100 μL acidified (4 mM HCl) isopropanol. The 96-well plate was then read at 540 nm on a FLUOstar Optima (BMG Labtech Cary, N.C.) microplate reader. Cell viability was calculated as a percentage using the two previously mentioned controls.

[14] = test system: A. baumannii 3941; test: Colistin potentiation, chromosomally colistin resistant A. baumannii 3941; assay type: cell-based
Excerpt: as §1

[15] = test system: E. coli YD626 +mcr-1; test: Colistin potentiation, broth microdilution, E. coli YD626 +mcr-1; details: no adjuvant
[16] = test system: K. pneumoniae 2210291 +mcr-1; test: Colistin potentiation, broth microdilution, K. pneumoniae 2210291 +mcr-1; details: no adjuvant
[17] = test system: A. baumannii 17978 (parent); test: Colistin potentiation, broth microdilution, A. baumannii 17978 parent; assay type: cell-based; details: no adjuvant
Excerpt: as §1

[18] = test system: K. pneumoniae 2210291 (parent); test: Colistin potentiation, broth microdilution, K. pneumoniae 2210291 parent; assay type: cell-based; details: no adjuvant
Excerpt: as §1

[19] = test system: A. baumannii 17978 +mcr-1; test: Colistin potentiation, broth microdilution, A. baumannii 17978 +mcr-1; details: no adjuvant

## CCCCc1ccc(C(=O)NCCc2c[nH]c3ccccc23)cc1 [Compound 1a]
[1]
  fold reduction in the colistin MIC: 32 fold
[2]; adjuvant at 50 μM, parent E. coli strain
  fold reduction of colistin MIC: 16 fold
[3]
  fold reduction in the colistin MIC: two-fold

## CN(C)c1cc(NC(=O)CNC(C)(C)C)c(O)c2c1C[C@H]1C[C@H]3[C@H](N(C)C)C(O)=C(C(N)=O)C(=O)[C@@]3(O)C(O)=C1C2=O [tigecycline, reference compound]
[4]
  MIC: 8 mg/L
[5]; 100 mg/kg
  survival of inoculated worms after 4 days, monotherapy: 20%

## O=C(NCCc1c[nH]c2ccc(Br)cc12)Nc1cc(Cl)c(Br)c(Cl)c1 [Compound 9e, 1-(2-(5-bromo-1H-indol-3-yl)ethyl)-3-(4-bromo-3,5-dichlorophenyl)urea]
[6]; adjuvant at 7.5 μM
  colistin MIC with adjuvant: 1 mg/L
[6]; adjuvant at 8 μM
  colistin MIC with adjuvant: 4 mg/L
[6]; adjuvant at 10 μM
  colistin MIC with adjuvant: 1 mg/L
  fold reduction of colistin MIC: > 2000 fold
[6]; adjuvant at 15 μM
  colistin MIC with adjuvant: 0.5 mg/L
[6]; adjuvant at 20 μM
  colistin MIC with adjuvant: 0.5 mg/L
[7]; adjuvant at 7.5 μM
  colistin MIC with adjuvant: 2 mg/L
[7]; adjuvant at 8 μM
  colistin MIC with adjuvant: 2 mg/L
[7]; adjuvant at 10 μM
  colistin MIC with adjuvant: 1 mg/L
[7]; adjuvant at 15 μM
  colistin MIC with adjuvant: 0.5 mg/L
[7]; adjuvant at 20 μM
  colistin MIC with adjuvant: 0.5 mg/L
[8]
  colistin sensitization activity in absence and presence of Tween 80: equipotent colistin sensitization activity in the absence and presence of Tween 80
[5]; 50 mg/kg compound paired with 50 mg/kg colistin
  survival of inoculated worms after 4 days, combination with colistin: 47%
[5]; 50 mg/kg
  survival of inoculated worms after 4 days, monotherapy: 0%
[9]; adjuvant at 7.5 μM
  resensitization to breakpoint colistin levels, chromosomally resistant strains: resensitized three out of four chromosomally resistant strains; also recorded: resensitized three out of the four strains to breakpoint colistin levels
[9]; adjuvant at 20 μM
  colistin MIC with adjuvant, all four chromosomally colistin resistant strains (CLSI breakpoint): < 2 mg/L
[10]
  toxicity to red blood cells: generally non-toxic
[11]; adjuvant at 5 μM
  resensitization to colistin, all three mcr-1 containing strains: resensitized all three mcr-1 containing bacterial strains to colistin
[11]; adjuvant at 15 μM, susceptibility breakpoint 2 μg/mL
  colistin MIC with adjuvant, all three mcr-1 strains: lowered the colistin MIC to the susceptibility breakpoint
[12]; adjuvant at 5 μM, K. pneumoniae B9
  colistin MIC with adjuvant: 0.5 mg/L
[12]; adjuvant at 5 μM, a chromosomally resistant K. pneumoniae strain (MIC 512 to 0.5 μg/mL)
  fold reduction of colistin MIC: 1024 fold
[12]; adjuvant at 10 μM, K. pneumoniae B9
  fold reduction of colistin MIC: > 2000 fold
[13]
  toxicity to the 4T1 cell line: generally non-toxic
[13]; 4T1 cells, 18 h, with 1 μg/mL colistin, concentration giving 50% cell viability
  CT50, Compound + colistin: 64.9 µM
[13]; 4T1 cells, 18 h, without colistin, concentration giving 50% cell viability
  CT50, Compound alone: 94.1 µM
[14]; adjuvant at 7.5 μM
  colistin MIC with adjuvant: 16 mg/L
[14]; adjuvant at 10 μM
  colistin MIC with adjuvant: 4 mg/L
[14]; adjuvant at 15 μM
  colistin MIC with adjuvant: 4 mg/L
[14]; adjuvant at 20 μM
  colistin MIC with adjuvant: 2 mg/L

## colistin [reference compound]
[6]; no adjuvant
  colistin MIC, colistin alone: 1024 mg/L
[7]; no adjuvant
  colistin MIC, colistin alone: 512 mg/L
[2]; no adjuvant, E. coli YD626 parent
  colistin MIC, colistin alone: 1 mg/L
[15]
  colistin MIC, colistin alone: 8 mg/L
[16]
  colistin MIC, colistin alone: 16 mg/L
[5]; 50 mg/kg
  survival of inoculated worms after 4 days, monotherapy: 7%
[12]; no adjuvant, K. pneumoniae B9
  colistin MIC, colistin alone: 512 mg/L
[17]
  colistin MIC, colistin alone: 2 mg/L
[18]
  colistin MIC, colistin alone: 1 mg/L
[14]; no adjuvant
  colistin MIC, colistin alone: 512 mg/L
[19]
  colistin MIC, colistin alone: 16 mg/L
